Data taken from US8802705B2, “Pharmaceutical containing PPAR delta agonist” (Senju Pharmaceutical Co., Ltd., priority 2007, dated 2014).

Tested on: corneal epithelial defect
Test: Promoting action on corneal epithelial wound healing after corneal epithelial scraping (Experimental Example 2)
Type: in vivo, Japanese white rabbits
Settings: rabbit; for ratio of the remaining corneal epithelial defect: mean ± SD, N = 6
Description: Male Japanese white rabbits (KITAYAMA LABES Co., Ltd.) were used. The experimental animals were used according to the International Guiding Principles for Biomedical Research involving Animals.
Compound A was used as a test substance. Compound A was dissolved in the following vehicle at 0.0005% or suspended in the following vehicle at 0.005% and used as an instillation.
As a control for the compound A administration group, the above-mentioned vehicle instillation group free of medicament was used.
Animals received intramuscular injection (1 mL/kg) of a Selactal (2% xylazine; Bayer, Ltd.): Ketalar (5% ketamine; DAIICHI SANKYO COMPANY, LIMITED)=1:1 mixture for systemic anesthesia, and oxybuprocaine hydrochloride instillation (Benoxil instillation 0.4%; Santen Pharmaceutical CO., Ltd.) and then the eyeballs were exposed. Using a trephine with a diameter of 10 mm, a mark (diameter 10 mm) was stamped on the corneal epithelium in the central part of the cornea, and the entire corneal epithelial layer within the marked circle was scraped off with a handy rooter under a stereomicroscope. After scraping, the corneal surface was washed with physiological saline (OTSUKA PHARMACEUTICAL FACTORY, INC.), and the corneal epithelial scraping treatment was completed by placing the eyeball back in the orbitae.
Compound A instillation or an instillation vehicle was instilled by 50 μL each time into the treated eye with a micropipette twice a day on the day of corneal epithelial scraping and four times a day from the next day to the completion of the test.
Using the time point when the corneal epithelial scraping was completed in all animals as a test starting time (0 hr), the area of corneal epithelium defect was quantified 40, 48, 56 and 64 hr later, based on which wound healing of the corneal epithelium was evaluated. To be precise, 0.1% fluorescein sodium (Wako Pure Chemical Industries, Ltd.) solution (10 μL) was instilled into the treated eye at each time point, and the anterior ocular segment of the animals was immediately photographed using a slit lamp with a blue filter, whereby the fluorescein-stained corneal epithelial deficient region was recorded. The developed photograph was stored as digital images on a computer, and the area of the fluorescein-stained corneal epithelial defect was measured using an image analysis software (Image-Pro Plus).
The area of the fluorescein-stained corneal epithelial defect measured at each time point was calculated based on the initial value of each animal as 100%, and taken as the ratio of the remaining corneal epithelial defect. The ratio of the remaining corneal epithelial defect at each time point was compared between the vehicle instillation group and compound A instillation group using the t-test. A critical value of less than 5% as a result of the test was judged as significant.

Cc1cc2c(CCc3sc(-c4ccc(C(F)(F)F)cc4)nc3C(C)C)noc2cc1OCC(=O)O [compound A, [3-[2-[4-isopropyl-2-(4-trifluoromethyl)phenyl-5-thiazolyl]ethyl]-5-methyl-1,2-benzisoxazol-6-yl]oxyacetic acid]
ratio of the remaining corneal epithelial defect (0.0005% instillation, 0 hr (initial value)): 100.0 ± 0.0%
ratio of the remaining corneal epithelial defect (0.0005% instillation, 40 hr later, initial value = 100%): 24.8 ± 2.7%
ratio of the remaining corneal epithelial defect (0.0005% instillation, 48 hr later, initial value = 100%): 11.8 ± 2.9 %
ratio of the remaining corneal epithelial defect (0.0005% instillation, 56 hr later, initial value = 100%): 3.8 ± 2.8%
ratio of the remaining corneal epithelial defect (0.0005% instillation, 64 hr later, initial value = 100%): 0.8 ± 1.4%
ratio of the remaining corneal epithelial defect (0.005% instillation, 0 hr (initial value)): 100.0 ± 0.0%
ratio of the remaining corneal epithelial defect (0.005% instillation, 40 hr later, initial value = 100%): 18.6 ± 8.0 %
ratio of the remaining corneal epithelial defect (0.005% instillation, 48 hr later, initial value = 100%): 9.1 ± 6.4 %
ratio of the remaining corneal epithelial defect (0.005% instillation, 56 hr later, initial value = 100%): 3.4 ± 3.7%
ratio of the remaining corneal epithelial defect (0.005% instillation, 64 hr later, initial value = 100%): 0.9 ± 1.3%
effect on wound healing of corneal epithelial defect (in words) (instillation 0.0005% or 0.005%, conclusion of the test): promotes wound healing of corneal epithelial defect
